Here are results for five compounds from US8455665B2, “3-phenoxymethylpyrrolidine compounds” (Theravance, Inc., priority 2009, dated 2013).

For one assay, the system named is SERT and NET. The settings on record: cited from earlier work.
The target of assay [1] is T1, NET (Homo sapiens, UniProt P23975). As to the kind of experiment: hNET membrane radioligand binding assay (3H-nisoxetine). More on the design: expressed in transfected cells; host or cells: HEK-293. The conditions noted are these: hNET membranes (HEK-293), 1.0 nM 3H-nisoxetine. An outline of the steps:
(§1)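 HEK-293 membranes stably expressing hNET or hSERT; inhibition of ³H-nisoxetine (hNET) or ³H-citalopram (hSERT) binding in 50 mM Tris-HCl, 120 mM NaCl, 5 mM KCl, pH 7.4, 60 min at 22 °C. Filtration, scintillation counting; nonspecific with 1 μM desipramine (NET) or 1 μM duloxetine (SERT). pKi via Cheng-Prusoff from IC50 and radioligand Kd.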

In assay [2] the target is T1, NET. As to the kind of experiment: hNET neurotransmitter uptake assay (3H-NE). The format is cell-based. More on the design: expressed in transfected cells; host or cells: HEK-293. The settings on record: norepinephrine reuptake inhibition, HEK-293 hNET cells, 3H-NE (no asterisk). The method, then:
(§2) Neurotransmitter uptake assays were used to measure inhibition of ^3H-serotonin (^3H-5-HT), ^3H-norepinephrine (^3H-NE), and ^3H-dopamine (^3H-DA) uptake into cells expressing the respective transporter (hSERT, hNET or hDAT) in order to determine the pIC50 values of test compounds at the transporters.
(§3) HEK-293 derived cell lines stably-transfected with hSERT, hNET, or hDAT, respectively, were grown in DMEM medium supplemented with 10% dialyzed FBS (for hSERT) or FBS (for hNET and hDAT), 100 μg/ml penicillin, 100 μg/ml streptomycin, 2 mM L-glutamine and 250 μg/ml of the aminoglycoside antibiotic G418 (for hSERT and hNET) or 800 ug/ml (for hDAT), in a 5% CO2 humidified incubator at 37° C. When cultures reached 80% confluence, the cells were washed thoroughly in PBS (without Ca^2+ and Mg^2+) and lifted with 5 mM EDTA in PBS. Cells were harvested by centrifugation at 1100 rpm for 5 minutes, washed once by resuspension in PBS, then centrifuged. The supernatant was discarded and the cell pellet resuspended, by gentle trituration, in room temperature Krebs-Ringer bicarbonate buffer containing HEPES (10 mM), CaCl2 (2.2 mM), ascorbic acid (200 μM) and pargyline (200 μM), pH 7.4. The final concentration of cells in the cell suspension was 7.5×10^4 cells/ml, 1.25×10^5 cells/ml, and 5.0×10^4 cells/ml for SERT, NET, and DAT cell lines, respectively.
(§4) Neurotransmitter uptake assays were performed in a 96-well assay plate in a total volume of 400 μl assay buffer (Krebs-Ringer bicarbonate buffer containing HEPES (10 mM), CaCl2 (2.2 mM), ascorbic acid (200 μM) and pargyline (200 μM), pH 7.4) with 1.5×10^4 and 2.5×10^4 cells, for SERT, NET, and DAT, respectively. […] Stock solutions (10 mM in DMSO) of test compound were prepared and serial dilutions prepared using 50 mM Tris-HCl, 120 mM NaCl, 5 mM KCl, pH 7.4, 0.1% BSA, 400 μM ascorbic acid. Test compounds were incubated for 30 minutes at 37° C. with the respective cells, prior to addition of radiolabeled neurotransmitter, ^3H-5-HT (20 nM final concentration), ^3H-NE (50 nM final concentration) or ^3H-DA (100 nM final concentration). Non-specific neurotransmitter uptake was determined in the presence of 2.5 μM duloxetine, 2.5 μM desipramine, or 10 uM GBR-12909 (each in Dilution Buffer) for the hSERT, hNET, or hDAT assays, respectively.
(§5) Following a 10 minute incubation, at 37° C., with radioligand, the cells were harvested by rapid filtration over a 96-well UniFilter GF/B plate, pretreated with 1% BSA, and washed 6 times with 650 μl wash buffer (ice cold PBS). Plates were dried overnight at 37° C., ˜45 μl of MicroScint™-20 (Perkin Elmer) added and incorporated radioactivity quantitated via liquid scintillation spectroscopy Inhibition curves were analyzed using GraphPad Prism Software package (GraphPad Software, Inc., San Diego, Calif.). IC50 values were generated from concentration response curves using the Sigmoidal Dose Response (variable slope) algorithm in Prism GraphPad.

Assay [3] has as its target T2, SERT (Homo sapiens, UniProt P31645). The assay is described as follows: hSERT neurotransmitter uptake assay (3H-5-HT). The format is cell-based. Also on record: expressed in transfected cells; host or cells: HEK-293. The conditions noted are these: serotonin reuptake inhibition, HEK-293 hSERT cells, 3H-5-HT (no asterisk). Here is the method:
as §2, §3, §4, §5

Assay [4] has as its target T2, SERT. The assay is described as follows: hSERT membrane radioligand binding assay (3H-citalopram). More on the design: expressed in transfected cells; host or cells: HEK-293. The settings on record: hSERT membranes (HEK-293), 1.0 nM 3H-citalopram. A digest of the protocol:
as §1

Molecules are shown by their SMILES. Where only a bound is given, the exact number is not on record here.

T2 sequence (P31645 whole entry): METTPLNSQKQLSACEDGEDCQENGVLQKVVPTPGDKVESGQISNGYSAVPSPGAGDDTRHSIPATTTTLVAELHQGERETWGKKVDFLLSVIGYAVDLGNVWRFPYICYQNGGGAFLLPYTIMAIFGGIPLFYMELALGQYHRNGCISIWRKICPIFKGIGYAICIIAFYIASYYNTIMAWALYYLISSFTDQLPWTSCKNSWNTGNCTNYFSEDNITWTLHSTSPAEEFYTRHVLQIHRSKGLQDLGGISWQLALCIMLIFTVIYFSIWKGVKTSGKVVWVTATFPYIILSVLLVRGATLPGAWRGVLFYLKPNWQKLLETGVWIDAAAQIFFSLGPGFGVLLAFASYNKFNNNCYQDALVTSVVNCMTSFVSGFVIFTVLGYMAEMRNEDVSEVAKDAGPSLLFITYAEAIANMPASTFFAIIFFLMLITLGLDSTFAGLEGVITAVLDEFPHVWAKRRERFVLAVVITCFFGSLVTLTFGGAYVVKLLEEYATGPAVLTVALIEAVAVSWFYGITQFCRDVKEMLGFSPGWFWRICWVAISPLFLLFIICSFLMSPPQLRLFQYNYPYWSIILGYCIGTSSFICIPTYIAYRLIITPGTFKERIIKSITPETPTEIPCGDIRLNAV
T1 sequence (P23975 whole entry): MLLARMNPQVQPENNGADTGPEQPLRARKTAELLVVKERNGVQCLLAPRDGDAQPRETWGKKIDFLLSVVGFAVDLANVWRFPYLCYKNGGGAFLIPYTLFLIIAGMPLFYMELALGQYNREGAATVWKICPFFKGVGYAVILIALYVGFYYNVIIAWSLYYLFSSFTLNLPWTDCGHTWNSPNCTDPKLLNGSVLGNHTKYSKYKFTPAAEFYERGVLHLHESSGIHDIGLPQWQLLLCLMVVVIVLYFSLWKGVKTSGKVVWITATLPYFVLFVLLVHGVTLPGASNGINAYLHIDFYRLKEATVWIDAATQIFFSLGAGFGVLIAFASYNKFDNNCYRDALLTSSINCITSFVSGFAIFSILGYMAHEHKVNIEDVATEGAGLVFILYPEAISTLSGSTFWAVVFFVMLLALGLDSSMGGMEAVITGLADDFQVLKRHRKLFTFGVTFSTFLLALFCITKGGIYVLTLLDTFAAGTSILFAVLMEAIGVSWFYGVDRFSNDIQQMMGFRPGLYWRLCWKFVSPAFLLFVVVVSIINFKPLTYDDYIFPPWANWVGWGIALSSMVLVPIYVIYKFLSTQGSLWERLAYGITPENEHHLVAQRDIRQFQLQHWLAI

On to `CNCC[C@H](Oc1cccc2ccccc12)c1cccs1` [duloxetine], for which the “affinity for SERT relative to NET” value in the assay on SERT and NET (Vaishnavi et al. (2004)) is recorded as “higher affinity for SERT relative to NET”. In addition, the “selectivity (measured as pKi) for SERT over NET” value in the assay on SERT and NET was 10 fold.

As for `CCN(CC)C(=O)C1(c2ccccc2)CC1CN` (stereo not drawn) [milnacipran], in the assay with SERT and NET, the “selectivity (measured as pKi) for SERT over NET” value was 2.5 fold.

As to `CNCC[C@@H](Oc1ccccc1C)c1ccccc1` [Atomoxetine], the NET selective in the assay on SERT and NET is 10 fold.

For `COC[C@H](Oc1cccc(Cl)c1Cl)[C@H]1CCNC1` [Example 4-10], at NET [1], the “NET pKi” value was “≧8.0”. For the same compound, the “NET pIC50” value at NET [2] is “≧8.0”. At SERT [3], the “SERT pIC50” value was “≧8.0”. For the same compound, the “SERT pKi” value at SERT [4] is “≧8.0”.

For `Clc1cc(Cl)cc(O[C@@H](C2CCOCC2)[C@@H]2CCNC2)c1` [Example 13-30, (R)-3-[(S)-(3,5-Dichlorophenoxy)(tetrahydropyran-4-yl)methyl]pyrrolidine], the Ki on NET [1] (read-out: NET pKi (converted)) and on SERT [4] (read-out: SERT pKi (converted)) was at most 0.01 µM throughout. In addition, the IC50 on NET [2] (read-out: NET pIC50 (converted)) and on SERT [3] (read-out: SERT pIC50 (converted)) was at most 0.01 µM in each case.
